Patent US8383673B2, “Nitridoosmium(VI) complexes for treatment of cancer” (priority 2010, dated 2013)
Like-named read-outs stand apart in the source and are kept apart here.

Assays:
[1] = tested on: HeLa cells; test: MTT assay of Compound 8 with and without cisplatin; format: cell-based, human; conditions: for IC50: MTT, 3 days incubation
Description: Compound 8 was tested in the MTT assay to determine its effects with and without cisplatin (see FIG. 1). Assays of cytotoxicity were conducted in 96-well, flat-bottomed microtitre plates. The supplemented culture medium (MEM, 40 μL) with HeLa cells (1×10^5 cells per mL) was added to the wells. Compound 8 was dissolved in the culture medium with 0.5% DMSO with concentrations ranged from 5 μM to 100 μM, and aliquots (10 μL) of the solutions were subsequently added to a set of wells containing the HeLa cells. To examine the synergistic effect of cisplatin, cisplatin was dissolved in the culture medium in order to prepare solutions with concentrations of 0, 0.2, 2 and 6 μM. Aliquots of the cisplatin solutions (50 μL) were added to different sets of the wells containing compound 8 and the HeLa cells. Cells for control experiments were treated with supplemented media with 0.5% DMSO (100 μL). The microtitre plates were incubated at 37° C. in a humidified atmosphere of 5% CO2/95% air for a further 3 days. Assessment of cytotoxicity was carried out by using a modified method of the Mosmann-based 3-(4,5-dimethylthiazol-2-yl)-2,5-diphenyltetrazolium bromide (MTT) assay [T. Mosmann, J. Immunol. Methods 1983, 65, 55]. At the end of the incubation period, MTT solution (10 μL, Cell Proliferation Kit I, Roche) was added into each well and the cultures were incubated further for 4 h at 37° C. in a humidified atmosphere of 5% CO2/95% air. A solubilizing solution (100 μL) was added into wells to lyse the cells and to solubilize the formed formazan complex. The microtitre plates were maintained in a dark, humidified chamber overnight. The formation of formazan was measured by using a microtitre plate reader at 550 nm and the percentages of cell survival were determined. The cytotoxicity was evaluated based on the percentage cell survival in a dose-dependent manner relative to the control.

[2] = tested on: human cervix epitheloid carcinoma (HeLa) cell line; test: Microculture Tetrazolium Test (MTT assay), cytotoxicity in HeLa cell line; format: cell-based
Description: The cytotoxicity of the complexes was tested by using human cervix epitheloid carcinoma (HeLa) cell line. In this respect the following method was selected.
The antiproliferation activity of these nitridoosmium compounds was examined on human tumor cell lines in the Microculture Tetrazolium Test (MTT assay) with continuous active substance exposition (24 h for compound 1-7; 48 h for compound 8-11). In this regard, adherent monolayer cultures of HeLa cell line were used.
Culture conditions: The cells were kept in 10 cm^2 culture plates at 37° C. and moist atmosphere (5% CO2). Dulbecco's Modified Eagle's Medium (DMEM) was used as culture medium, with 1% antibiotic-antimycotic and 10% fetal bovine serum.
Test execution: Cell were harvested from culture plates by trypsinization and seeded in 100 μL aliquots in complete culture medium into 96-well microculture plates. Cell density of about 4800 cells/well was chosen in order to ensure exponential growth throughout drug exposure. Cells were allowed to settle for 24 h, followed by the addition of dilutions of the test compounds, which were dissolved in DMSO, in 100 μL/well complete culture medium (<1% DMSO) and incubation for 24 h (compound 1-7) or 48 h (compound 8-11). At the end of exposure, drug solutions were replaced by 100 μL/well DMEM medium with 10% MTT solution in phosphate-buffered saline (5 mg/ml PBS). After incubation for 1 h at 37° C., medium was removed, and the reduced formazan product formed by the metabolic activity of vital cells was dissolved in 100 μL DMSO per well. Optical densities at a wavelength of 570 nm were measured with a microplate reader. The quantity of vital cells was expressed in terms of T/C values by comparison to untreated control microcultures, and IC50 values were calculated from concentration-effect curves by logarithmic interpolation. Evaluation is based on means from at least three independent experiments, each comprising four replicates per concentration level.

[3] = tested on: human non-small cell lung cancer cells NCI-H460; conditions: for tumor weight: twice a week, eight injections, end of study (30 days), Mean ± SD; for inhibition rate (%): tumor growth inhibition by tumor weight vs negative group
Description: In vitro cultured human non-small cell lung cancer cells NCI-H460 (from ATCC) were inoculated in nude mice (SPF grade BALB/c-nu male nude mice were purchased from Medical Laboratory Animal Center, Guangdong Province) subcutaneously. The in vivo anti-cancer properties of Os1 (Compound 8) and Os2 (Compound 1) given by intraperitoneal injection were examined by measuring the tumor nodule size of the nude mice.
Each nude mouse was inoculated subcutaneously with 0.2 mL of 7.5×10^6 cells/mL of NCI-H460 cells suspended in culture medium.
Experimental Procedure: 16-18 g male BALB/c-nu nude mice were inoculated subcutaneously 0.2 mL of the NCI-H460 cell suspension (1.5×10^6 cells/rats). The day after inoculation (administration day 1), the nude mice were randomly divided into eight groups and were grouped as follows:
1) positive group (cyclophosphamide 30.0 mg/kg, intraperitoneal injection)
2) negative group (20% PET, intraperitoneal injection)
3) Os1 groups (three treatment groups: 10, 3, 1 mg/kg, intraperitoneal injection)
4) Os2 groups (three treatment groups: 10, 3, 1 mg/kg, intraperitoneal injection)
Mice in each group were received treatment twice a week, with a total number of eight injections. Tumor sizes were measured every 3 days. The treated mice were sacrificed at the end of the study period (30 days) with anatomical separation of tumor nodules. The tumors were weighed and photographed.
The inhibition rate of tumor growth was determined using the following formula: Tumor growth inhibition rate (%)=(1−mean tumor weight of the treatment/mean tumor weight of the negative group)×100%. Tumor volume=longest dimension (mm)×[shortest dimension of the tumor (mm)]^2/2. All measurements were expressed in Mean±SD, using SPSS 10.0 for statistical analysis.

## N.N.[Cl][Pt][Cl] [Cisplatin, cisplatin, reference compound]
[1]; single agent
  IC50: 7.5 µM

## Cc1cc(C)[nH]n1.Cc1cc(C)[nH]n1.[N]#[Os]([Cl])([Cl])[Cl] [Compound 10, trans-[Os^VI(N)(3,5-dimethylpyrazole)2Cl3]]
[2]; 48 h exposure (compound 8-11)
  IC50: < 100 µM

## Cc1ccn[nH]1.Cc1ccn[nH]1.[N]#[Os]([Cl])([Cl])[Cl] [Compound 11, trans-[Os^VI(N)(5-methylpyrazole)2Cl3]]
[2]; 48 h exposure (compound 8-11)
  IC50: < 100 µM

## O=P1(N(CCCl)CCCl)NCCCO1 (centres unmarked) [positive control, cyclophosphamide, reference compound]
[3]; 30 mg/kg i.p., day 14
  Tumor volume/mm^3: 168.16 mm^3
[3]; 30 mg/kg i.p., day 18
  Tumor volume/mm^3: 227.03 mm^3
[3]; 30 mg/kg i.p., day 22
  Tumor volume/mm^3: 318.64 mm^3
[3]; 30 mg/kg i.p., day 26
  Tumor volume/mm^3: 378.31 mm^3
[3]; 30 mg/kg i.p., day 30
  Tumor volume/mm^3: 778.84 mm^3
[3]; 30.0 mg/kg i.p.
  tumor weight: 0.6095 ± 0.5477 g
  inhibition rate (%): 74.04%

## [Os^VI(N)(5-Brsalpa)(OH2)Cl] [Compound 3]
[2]; 24 h exposure (compound 1-7)
  IC50: < 25 µM

## [Os^VI(N)(5-Clsalpa)(OH2)Cl] [Compound 2]
[2]; 24 h exposure (compound 1-7)
  IC50: < 25 µM

## [Os^VI(N)(5-MeOsalpa)(OH2)Cl] [Compound 5]
[2]; 24 h exposure (compound 1-7)
  IC50: < 25 µM

## [Os^VI(N)(5-Mesalpa)(OH2)Cl] [Compound 4]
[2]; 24 h exposure (compound 1-7)
  IC50: < 25 µM

## [Os^VI(N)(5-NO2salpa)(OH2)Cl] [Compound 6]
[2]; 24 h exposure (compound 1-7)
  IC50: < 100 µM

## [Os^VI(N)(pyrazole)2Cl3] [Compound 8]
[1]
  effectiveness in the MTT assay compared with cisplatin: more effective than cisplatin
[1]; single agent
  IC50: 3.8 µM
[1]; with cisplatin 0.1 μM
  IC50: 4.19 µM
[1]; with cisplatin 1.0 μM
  IC50: 3.38 µM
[1]; with cisplatin 3.0 μM
  IC50: 4.7 µM
[1]; cisplatin 0.1-3.0 μM
  synergistic effect of cisplatin administered with the compound: does not provide any synergistic effect
[3]; 1 mg/kg i.p., day 14
  Tumor volume/mm^3: 288.12 mm^3
[3]; 1 mg/kg i.p., day 18
  Tumor volume/mm^3: 518.99 mm^3
[3]; 1 mg/kg i.p., day 22
  Tumor volume/mm^3: 801.59 mm^3
[3]; 1 mg/kg i.p., day 26
  Tumor volume/mm^3: 1319.35 mm^3
[3]; 1 mg/kg i.p., day 30
  Tumor volume/mm^3: 1569.69 mm^3
[3]; 1 mg/kg i.p.
  tumor weight: 1.7206 ± 0.4289 g
  inhibition rate (%): 26.73%
[3]; 3 mg/kg i.p., day 14
  Tumor volume/mm^3: 482.89 mm^3
[3]; 3 mg/kg i.p., day 18
  Tumor volume/mm^3: 1043.37 mm^3
[3]; 3 mg/kg i.p., day 22
  Tumor volume/mm^3: 1140.42 mm^3
[3]; 3 mg/kg i.p., day 26
  Tumor volume/mm^3: 1537.35 mm^3
[3]; 3 mg/kg i.p., day 30
  Tumor volume/mm^3: 2262.38 mm^3
[3]; 3 mg/kg i.p.
  tumor weight: 2.0631 ± 1.1693 g
  inhibition rate (%): 12.14%
[3]; 10 mg/kg i.p., day 14
  Tumor volume/mm^3: 534.98 mm^3
[3]; 10 mg/kg i.p., day 18
  Tumor volume/mm^3: 901.64 mm^3
[3]; 10 mg/kg i.p., day 22
  Tumor volume/mm^3: 1422.37 mm^3
[3]; 10 mg/kg i.p., day 26
  Tumor volume/mm^3: 2004.80 mm^3
[3]; 10 mg/kg i.p., day 30
  Tumor volume/mm^3: 2511.59 mm^3
[3]; 10 mg/kg i.p.
  tumor weight: 2.7711 ± 1.0732 g
  inhibition rate (%): −18.01%
[2]; 48 h exposure (compound 8-11)
  IC50: < 25 µM

## [Os^VI(N)(salpa)(OH2)Cl] [Compound 1]
[3]; 1 mg/kg i.p., day 14
  Tumor volume/mm^3: 380.21 mm^3
[3]; 1 mg/kg i.p., day 18
  Tumor volume/mm^3: 710.06 mm^3
[3]; 1 mg/kg i.p., day 22
  Tumor volume/mm^3: 726.71 mm^3
[3]; 1 mg/kg i.p., day 26
  Tumor volume/mm^3: 1365.02 mm^3
[3]; 1 mg/kg i.p., day 30
  Tumor volume/mm^3: 1110.38 mm^3
[3]; 1 mg/kg i.p.
  tumor weight: 1.2164 ± 0.6547 g
  inhibition rate (%): 48.20%
[3]; 3 mg/kg i.p., day 14
  Tumor volume/mm^3: 420.80 mm^3
[3]; 3 mg/kg i.p., day 18
  Tumor volume/mm^3: 500.45 mm^3
[3]; 3 mg/kg i.p., day 22
  Tumor volume/mm^3: 1011.29 mm^3
[3]; 3 mg/kg i.p., day 26
  Tumor volume/mm^3: 1032.38 mm^3
[3]; 3 mg/kg i.p., day 30
  Tumor volume/mm^3: 1390.62 mm^3
[3]; 3 mg/kg i.p.
  tumor weight: 1.3542 ± 0.5337 g
  inhibition rate (%): 42.33%
[3]; 10 mg/kg i.p., day 14
  Tumor volume/mm^3: 507.33 mm^3
[3]; 10 mg/kg i.p., day 18
  Tumor volume/mm^3: 671.87 mm^3
[3]; 10 mg/kg i.p., day 22
  Tumor volume/mm^3: 1342.17 mm^3
[3]; 10 mg/kg i.p., day 26
  Tumor volume/mm^3: 1601.47 mm^3
[3]; 10 mg/kg i.p., day 30
  Tumor volume/mm^3: 2188.17 mm^3
[3]; 10 mg/kg i.p.
  tumor weight: 2.1535 ± 1.4884 g
  inhibition rate (%): 8.29%
[3]; high-dose group (10 mg/kg i.p.)
  deaths of treated mice: one treated mouse died at day 7 and one died at day 19
[3]; middle dose group (3 mg/kg i.p.)
  deaths of treated mice: one treated mouse died at day 23 and one died at day 26
[2]; 24 h exposure (compound 1-7)
  IC50: < 25 µM

## tran-[Os^VI(N)(indazole)2Cl3] [Compound 9]
[2]; 48 h exposure (compound 8-11)
  IC50: < 25 µM
